The record followed here is publication PMC7531004, “Discovery of gramicidin A analogues with altered activities by multidimensional screening of a one-bead-one-compound library” (Nature Communications, 2020).

Where a SMILES comes first, the peptide text is derived from it. [ ]: non-standard residue; d: D form. The star is where a group is joined. NHCH2CH2OH = OCCN*; For = O=C*

The conditions of data set [1]: cell viability/%. The essentials: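 First, library peptide stocks are diluted 250-fold in RPMI1640 with 10% heat-inactivated FBS. Next, they are mixed with P388 cells to give 1 × 10^4 cells/mL and incubated 92 h at 37 °C, 5% CO2. Finally, viability (%) is scored by WST-1 absorbance at 415 nm.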
The subject of data set [2] is Streptococcus pyogenes SSI-9. Description: Antibacterial activity assay of bead-derived peptides (three concentrations). As to conditions: S. pyogenes, bead-derived peptide solution, three concentrations. The class given is cell-based. Also noted: key: +++: inhibition by the 640-fold diluted peptide solution; ++: inhibition by the 160-fold diluted solution; +: inhibition by the 40-fold diluted solution; -: no inhibition. The essentials: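 Bead-derived library peptide stocks in DMSO were tested undiluted and after 4- and 16-fold DMSO dilution against S. pyogenes SSI-9 (2 × 10^5 CFU/well) in cation-adjusted Mueller Hinton Broth with 5% laked horse blood. After 18 h at 37 °C, wells were scored for precipitation of grown cells.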

A short description of data set [3]: H+/Na+ transport assay of bead-derived peptides (one-point).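 Also: relative to parent gramicidin A activity set to 1.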 The class given is biochemical. Also on record: key: relative activity; mean of two control wells = 1.00. As to conditions: bead-derived peptide solution, EYPC/EYPG LUVs. An outline of the steps: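 Pyranine (1.0 mM)-loaded LUVs containing egg yolk phosphatidylglycerol were prepared by film hydration, sonication and extrusion, then mixed with diluted bead-derived peptide in 96-well format and vortexed 30 min at room temperature. Fluorescence was normalized between untreated LUVs (0%) and Triton X-100 lysis (100%).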

As a reminder, the viability is a per cent measure of how many cells are alive, often set against a control. `CC(C)C[C@@H](NC(=O)[C@H](C)NC(=O)[C@H](NC(=O)[C@H](C)NC(=O)CNC(=O)[C@@H](NC=O)C(C)C)C(C)C)C(=O)N[C@H](C(=O)N[C@H](CC(C)C)C(=O)N[C@@H](Cc1c[nH]c2ccccc12)C(=O)N[C@@H](C(=O)N[C@@H](Cc1c[nH]c2ccccc12)C(=O)N[C@H](CC(C)C)C(=O)N[C@@H](Cc1c[nH]c2ccccc12)C(=O)N[C@@H](C(=O)N[C@@H](Cc1c[nH]c2ccccc12)C(=O)NCCO)C(C)C)[C@H](C)O)C(C)C` [compound 3260] (For-VGA[dV]A[dL]V[dL]W[dT]W[dL]W[dV]W-NHCH2CH2OH) returned a viability in data set [1] of 100%. The antibacterial activity result in data set [2] is “+”. Also, the “H+/Na+ transport activity normalized against the value of 1 (1.00)” value (“H+/Na+ transport activity normalized” below) in data set [3] came to 1.10.
The like results for `CNC(=O)C[C@@H](NC(=O)[C@@H](NC(=O)[C@@H](CC(C)C)NC(=O)[C@H](C)NC(=O)[C@@H](CC(C)C)NC(=O)[C@H](C)NC(=O)CNC(=O)[C@@H](NC=O)C(C)C)C(C)C)C(=O)N[C@@H](Cc1c[nH]c2ccccc12)C(=O)N[C@@H](C(=O)N[C@@H](Cc1c[nH]c2ccccc12)C(=O)N[C@H](CC(C)C)C(=O)N[C@@H](Cc1c[nH]c2ccccc12)C(=O)N[C@@H](C(=O)N[C@@H](Cc1c[nH]c2ccccc12)C(=O)NCCO)[C@H](C)O)C(C)C` [compound 3280] (For-VGA[dL]A[dL]V[dD](NHMe)W[dV]W[dL]W[dT]W-NHCH2CH2OH) were, in that order, 100%, “-” and 1.20.
The like results for `CC(C)C[C@@H](NC(=O)[C@H](C)NC(=O)[C@H](NC(=O)[C@H](C)NC(=O)CNC(=O)[C@@H](NC=O)C(C)C)C(C)C)C(=O)N[C@H](C(=O)N[C@@H](C(=O)N[C@@H](Cc1c[nH]c2ccccc12)C(=O)N[C@H](CC(C)C)C(=O)N[C@@H](Cc1c[nH]c2ccccc12)C(=O)N[C@@H](C(=O)N[C@@H](Cc1c[nH]c2ccccc12)C(=O)N[C@@H](C(=O)N[C@@H](Cc1c[nH]c2ccccc12)C(=O)NCCO)[C@H](C)O)C(C)C)[C@H](C)O)C(C)C` [compound 3328] (For-VGA[dV]A[dL]V[dT]W[dL]W[dV]W[dT]W-NHCH2CH2OH) were, in that order, 100%, “-” and 1.08.
The like results for `CNC(=O)C[C@@H](NC(=O)[C@H](Cc1c[nH]c2ccccc12)NC(=O)[C@H](NC(=O)[C@@H](NC(=O)[C@@H](CC(C)C)NC(=O)[C@H](C)NC(=O)[C@@H](CC(C)C)NC(=O)[C@H](C)NC(=O)CNC(=O)[C@@H](NC=O)C(C)C)C(C)C)C(C)C)C(=O)N[C@@H](Cc1c[nH]c2ccccc12)C(=O)N[C@H](CC(C)C)C(=O)N[C@@H](Cc1c[nH]c2ccccc12)C(=O)N[C@@H](C(=O)N[C@@H](Cc1c[nH]c2ccccc12)C(=O)NCCO)C(C)C` [compound 3329] (For-VGA[dL]A[dL]V[dV]W[dD](NHMe)W[dL]W[dV]W-NHCH2CH2OH) were, in that order, 100%, “+” and 1.33.
In the case of `CNC(=O)C[C@@H](NC(=O)[C@H](Cc1c[nH]c2ccccc12)NC(=O)[C@H](NC(=O)[C@H](Cc1c[nH]c2ccccc12)NC(=O)[C@@H](CC(C)C)NC(=O)[C@@H](NC(=O)[C@H](NC(=O)[C@H](C)NC(=O)[C@H](NC(=O)[C@H](C)NC(=O)CNC(=O)[C@@H](NC=O)C(C)C)C(C)C)C(C)C)C(C)C)C(C)C)C(=O)N[C@@H](Cc1c[nH]c2ccccc12)C(=O)N[C@@H](C(=O)N[C@@H](Cc1c[nH]c2ccccc12)C(=O)NCCO)C(C)C` [compound 3369] (For-VGA[dV]A[dV]V[dL]W[dV]W[dD](NHMe)W[dV]W-NHCH2CH2OH), the viability in data set [1] is 100%. The antibacterial activity result in data set [2] was “-”. The “H+/Na+ transport activity normalized” value in data set [3] came to 1.00.
The like results for `CC(C)C[C@@H](NC(=O)[C@H](C)NC(=O)[C@H](NC(=O)[C@H](C)NC(=O)CNC(=O)[C@@H](NC=O)C(C)C)C(C)C)C(=O)N[C@H](C(=O)N[C@@H](C(=O)N[C@@H](Cc1c[nH]c2ccccc12)C(=O)N[C@@H](C(=O)N[C@@H](Cc1c[nH]c2ccccc12)C(=O)N[C@@H](C(=O)N[C@@H](Cc1c[nH]c2ccccc12)C(=O)N[C@@H](C(=O)N[C@@H](Cc1c[nH]c2ccccc12)C(=O)NCCO)C(C)C)C(C)C)C(C)C)[C@H](C)O)C(C)C` [compound 3492] (For-VGA[dV]A[dL]V[dT]W[dV]W[dV]W[dV]W-NHCH2CH2OH) were, in that order, 100%, “-” and 1.12.
The like results for `CNC(=O)C[C@@H](NC(=O)[C@H](Cc1c[nH]c2ccccc12)NC(=O)[C@H](NC(=O)[C@H](Cc1c[nH]c2ccccc12)NC(=O)[C@@H](CC(C)C)NC(=O)[C@H](Cc1c[nH]c2ccccc12)NC(=O)[C@H](NC(=O)[C@@H](NC(=O)[C@H](NC(=O)[C@H](C)NC(=O)[C@@H](CC(C)C)NC(=O)[C@H](C)NC(=O)CNC(=O)[C@@H](NC=O)C(C)C)C(C)C)C(C)C)C(C)C)C(C)C)C(=O)N[C@@H](Cc1c[nH]c2ccccc12)C(=O)NCCO` [compound 3499] (For-VGA[dL]A[dV]V[dV]W[dL]W[dV]W[dD](NHMe)W-NHCH2CH2OH) were, in that order, 100%, “+” and 1.01.
The like results for `CNC(=O)C[C@@H](NC(=O)[C@@H](NC(=O)[C@H](NC(=O)[C@H](C)NC(=O)[C@@H](CC(C)C)NC(=O)[C@H](C)NC(=O)CNC(=O)[C@@H](NC=O)C(C)C)C(C)C)C(C)C)C(=O)N[C@@H](Cc1c[nH]c2ccccc12)C(=O)N[C@@H](C(=O)N[C@@H](Cc1c[nH]c2ccccc12)C(=O)N[C@@H](C(=O)N[C@@H](Cc1c[nH]c2ccccc12)C(=O)N[C@H](CC(C)C)C(=O)N[C@@H](Cc1c[nH]c2ccccc12)C(=O)NCCO)C(C)C)C(C)C` [compound 3596] (For-VGA[dL]A[dV]V[dD](NHMe)W[dV]W[dV]W[dL]W-NHCH2CH2OH) were, in that order, 100%, “-” and 1.06.
`CC(C)C[C@@H](NC(=O)[C@H](C)NC(=O)CNC(=O)[C@@H](NC=O)C(C)C)C(=O)N[C@@H](C)C(=O)N[C@@H](C(=O)N[C@H](C(=O)N[C@H](CC(C)C)C(=O)N[C@@H](Cc1c[nH]c2ccccc12)C(=O)N[C@@H](C(=O)N[C@@H](Cc1c[nH]c2ccccc12)C(=O)N[C@@H](C(=O)N[C@@H](Cc1c[nH]c2ccccc12)C(=O)N[C@@H](C(=O)N[C@@H](Cc1c[nH]c2ccccc12)C(=O)NCCO)C(C)C)C(C)C)C(C)C)C(C)C)[C@H](C)O` [compound 3733] (For-VGA[dL]A[dT]V[dL]W[dV]W[dV]W[dV]W-NHCH2CH2OH) came in with a viability in data set [1] of 100%. Further, the antibacterial activity entry in data set [2] is recorded as “-”. Moreover, the “H+/Na+ transport activity normalized” value in data set [3] is listed as 1.11.
The like results for `CNC(=O)C[C@@H](NC(=O)[C@H](Cc1c[nH]c2ccccc12)NC(=O)[C@@H](CC(C)C)NC(=O)[C@H](Cc1c[nH]c2ccccc12)NC(=O)[C@@H](CC(C)C)NC(=O)[C@@H](NC(=O)[C@@H](CC(C)C)NC(=O)[C@H](C)NC(=O)[C@@H](CC(C)C)NC(=O)[C@H](C)NC(=O)CNC(=O)[C@@H](NC=O)C(C)C)C(C)C)C(=O)N[C@@H](Cc1c[nH]c2ccccc12)C(=O)N[C@@H](C(=O)N[C@@H](Cc1c[nH]c2ccccc12)C(=O)NCCO)[C@H](C)O` [compound 3773] (For-VGA[dL]A[dL]V[dL]W[dL]W[dD](NHMe)W[dT]W-NHCH2CH2OH) were, in that order, 100%, “-” and 1.03.
The like results for `CC(C)C[C@@H](NC(=O)[C@H](C)NC(=O)[C@H](NC(=O)[C@H](C)NC(=O)CNC(=O)[C@@H](NC=O)C(C)C)[C@H](C)O)C(=O)N[C@H](C(=O)N[C@H](CC(C)C)C(=O)N[C@@H](Cc1c[nH]c2ccccc12)C(=O)N[C@H](CC(C)C)C(=O)N[C@@H](Cc1c[nH]c2ccccc12)C(=O)N[C@H](CC(C)C)C(=O)N[C@@H](Cc1c[nH]c2ccccc12)C(=O)N[C@@H](C(=O)N[C@@H](Cc1c[nH]c2ccccc12)C(=O)NCCO)C(C)C)C(C)C` [compound 3778] (For-VGA[dT]A[dL]V[dL]W[dL]W[dL]W[dV]W-NHCH2CH2OH) were, in that order, 100%, “-” and 1.08.
The like results for `CC(C)C[C@@H](NC(=O)[C@H](C)NC(=O)CNC(=O)[C@@H](NC=O)C(C)C)C(=O)N[C@@H](C)C(=O)N[C@H](CC(C)C)C(=O)N[C@H](C(=O)N[C@@H](C(=O)N[C@@H](Cc1c[nH]c2ccccc12)C(=O)N[C@@H](C(=O)N[C@@H](Cc1c[nH]c2ccccc12)C(=O)N[C@@H](C(=O)N[C@@H](Cc1c[nH]c2ccccc12)C(=O)N[C@H](CC(C)C)C(=O)N[C@@H](Cc1c[nH]c2ccccc12)C(=O)NCCO)C(C)C)[C@H](C)O)[C@H](C)O)C(C)C` [compound 3782] (For-VGA[dL]A[dL]V[dT]W[dT]W[dV]W[dL]W-NHCH2CH2OH) were, in that order, 100%, “-” and 1.12.
